Reference: patent US8318731B2, “Pyrrolopyrimidines” (Janssen Pharmaceutica NV, priority 2007, dated 2012)

Experiments:
[1] = test system: HCT-116; test: Cellular proliferation assay (Alamar blue), HCT-116; assay type: cell-based; details: Homo sapiens; HCT-116 cells; 10% FCS; 72 h with compound; Alamar blue 4 h; read-out: pIC50 HCT-116 (converted)
Summary of the method: (§1)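 Read-out: resazurin-based Alamar blue fluorescence at 544/590 nm, with dye left 24 h on PC3 and A2780, 6 h on U87-MG and 4 h on HCT-116. Beforehand, cells grew 24 h compound-free, then 72 h with compound, in 10% FCS at 37° C./5% CO2. Values are expressed against untreated controls.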

[2] = molecular target: T1, PLK4 (h) (Homo sapiens, UniProt O00444); test: PLK-4 human kinase scintillation proximity assay (SPA); assay type: biochemical; details: 1 μM ATP, 60 minutes at r.t., read-out: PLK4 pIC50 (converted)
T1 sequence (O00444 1-970): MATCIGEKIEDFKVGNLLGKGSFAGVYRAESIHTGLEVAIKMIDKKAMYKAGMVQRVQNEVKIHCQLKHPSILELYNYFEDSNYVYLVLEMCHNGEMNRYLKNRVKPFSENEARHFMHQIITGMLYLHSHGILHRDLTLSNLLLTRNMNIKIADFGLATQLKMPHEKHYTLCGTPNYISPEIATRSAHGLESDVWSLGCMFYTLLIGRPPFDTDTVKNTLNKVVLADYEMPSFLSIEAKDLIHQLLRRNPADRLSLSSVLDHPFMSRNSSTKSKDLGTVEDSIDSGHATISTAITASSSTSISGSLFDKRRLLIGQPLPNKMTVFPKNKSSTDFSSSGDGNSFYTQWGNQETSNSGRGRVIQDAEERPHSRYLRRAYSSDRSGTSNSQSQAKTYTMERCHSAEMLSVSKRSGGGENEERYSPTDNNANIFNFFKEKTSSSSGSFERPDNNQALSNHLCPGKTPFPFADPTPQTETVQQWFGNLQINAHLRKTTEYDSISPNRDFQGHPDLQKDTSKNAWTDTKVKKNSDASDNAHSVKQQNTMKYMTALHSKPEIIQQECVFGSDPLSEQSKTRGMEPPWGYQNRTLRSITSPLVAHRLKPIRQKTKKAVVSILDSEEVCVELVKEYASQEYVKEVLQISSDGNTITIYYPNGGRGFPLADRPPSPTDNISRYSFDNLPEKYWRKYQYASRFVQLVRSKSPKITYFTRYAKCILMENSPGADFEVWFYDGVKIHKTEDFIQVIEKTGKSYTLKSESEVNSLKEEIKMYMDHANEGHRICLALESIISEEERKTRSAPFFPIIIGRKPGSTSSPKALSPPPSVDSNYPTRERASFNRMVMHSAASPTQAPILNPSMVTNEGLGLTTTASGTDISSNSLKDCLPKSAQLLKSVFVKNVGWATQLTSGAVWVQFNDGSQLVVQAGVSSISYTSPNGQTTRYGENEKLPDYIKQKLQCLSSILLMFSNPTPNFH
Summary of the method: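 Scintillation proximity read-out: EDTA-stopped reactions were captured on streptavidin SPA beads after PLK4 (19 μg/ml) had phosphorylated 10 μM biotin-peptide for 60 min at room temperature, using 1 μM ATP spiked with 2 nM 33P-ATP in pH 8.0 HEPES buffer.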

[3] = test system: MDA-MB-231; test: Cellular proliferation assay (Alamar blue), MDA-MB-231; assay type: cell-based; details: 10% FCS, 72 h with compound, Alamar blue 24 h; for IC50: Homo sapiens, MDA-MB-231, MDA-MB-231 cells, read-out: pIC50 MDA/MB231 (converted)
Summary of the method: (§2)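 Viable cell number is determined by Alamar blue conversion after cells are treated with compound for 72 hours, following 24 hours of growth without compound in 10% FCS. The effect is calculated against control cells.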

[4] = test system: H1299; test: Cellular proliferation assay (Alamar blue), H1299; assay type: cell-based; details: 10% FCS, 72 h with compound, Alamar blue 4 h; for IC50: Homo sapiens, NCI-H1299, H1299 cells, read-out: pIC50 H1299 (converted)
Summary of the method: as §2

[5] = test system: PC3; test: Cellular proliferation assay (Alamar blue), PC3; assay type: cell-based; details: 10% FCS, 72 h with compound, Alamar blue 24 h; for IC50: Homo sapiens, PC-3, PC-3 cells, read-out: pIC50 PC-3 (converted)
Summary of the method: as §1

[6] = test system: A2780; test: Cellular proliferation assay (Alamar blue), A2780; assay type: cell-based; details: 10% FCS, 72 h with compound, Alamar blue 24 h; for IC50: Homo sapiens, A2780, A2780 cells, read-out: pIC50 A2780 (converted)
Summary of the method: as §1

[7] = test system: U87-MG; test: Cellular proliferation assay (Alamar blue), U87-MG; assay type: cell-based; details: Homo sapiens, U-87 MG; U87-MG cells; 10% FCS; 72 h with compound; Alamar blue 6 h; read-out: pIC50 U87MG (converted)
Summary of the method: as §1

Row | Structure (SMILES) | IC50 [1] | IC50 [2] | IC50 [3] | melting point | IC50 [4] | IC50 [5] | IC50 [6] | IC50 [7] | pIC50 MDA/MB231 ([3]; MDA-MB-231 cells) | pIC50 H1299 ([4]; H1299 cells) | pIC50 PC-3 ([5]; PC-3 cells) | pIC50 A2780 ([6]; A2780 cells)
1 | COc1ccc2cc1OCCCC(=O)N(C)CC1CN(Cc3c[nH]c4ncnc(c34)N2)C1 [Compound 73] | > 10000 nM | 200 nM | > 10000 nM | 265.3 °C | > 10000 nM | > 10000 nM | > 10000 nM | – | – | – | – | –
2 | CN1CCCN(C)C(=O)COc2cc(ccc2OC2CCOCC2)Nc2ncnc3[nH]cc(c23)C1 [Compound 74] | – | 200 nM | – | 270.9 °C | – | – | – | – | – | – | – | –
3 | CN1CCCN(C)C(=O)COc2cc(ccc2OCCSc2ccc(Cl)cc2)Nc2ncnc3[nH]cc(c23)C1 [Compound 150] | 63.1 nM | – | 2510 nM | 252.6 °C | ≥ 10000 nM | 5010 nM | 63.1 nM | – | – | – | – | –
4 | CN1CCCN(C)C(=O)COc2cc(ccc2OCCN(C)c2nccs2)Nc2ncnc3[nH]cc(c23)C1 [Compound 157] | 501 nM | – | 3160 nM | 232.2 °C | 1260 nM | 3160 nM | 501 nM | 1000 nM | 5.6 | 6.00 | 5.6 | 6.4
5 | COc1ccc(OCCOc2ccc3cc2OCC(=O)N(C)CCCN(C)Cc2c[nH]c4ncnc(c24)N3)cc1 [Compound 155] | 63.1 nM | – | 2510 nM | 250.4 °C | 126 nM | 2510 nM | 31.6 nM | 251 nM | – | – | – | –
6 | CCOCCOc1ccc2cc1OCC(=O)N(C)CCCN(C)Cc1c[nH]c3nc(C)nc(c13)N2 [Compound 147] | > 10000 nM | – | > 10000 nM | 251 °C | > 10000 nM | > 10000 nM | 2510 nM | > 10000 nM | – | – | – | –
7 | CN1CCCN(C)C(=O)COc2cc(ccc2OCC2CCN(Cc3ccccc3)CC2)Nc2ncnc3[nH]cc(c23)C1 [Compound 149] | 398 nM | – | 1000 nM | 241 °C | ≥ 10000 nM | 1000 nM | 316 nM | 501 nM | – | – | – | –
8 | COCCOc1c(OC)cc2cc1OCC(=O)N(C)CCCN(C)Cc1c[nH]c3ncnc(c13)N2 [Compound 161] | – | – | – | 201.4 °C | – | – | – | – | – | – | – | –
9 | COc1ccc2cc1CN(C(C)C)CC(=O)N(C)CCCc1c[nH]c3ncnc(c13)N2 [Compound 37] | > 10000 nM | > 10000 nM | > 10000 nM | – | > 10000 nM | > 10000 nM | > 10000 nM | > 10000 nM | – | – | – | –
10 | CN1CCCN(C)C(=O)COc2cc(ccc2OCC2CC2)Nc2ncnc3[nH]cc(c23)C1 [Compound 68] | 631 nM | 39.8 nM | 2000 nM | – | 1580 nM | 3160 nM | 631 nM | 1580 nM | – | – | – | –
11 | CN1CCN(C)C(=O)CCCCOc2cccc(c2)Nc2ncnc3[nH]cc(c23)C1 [Compound 2] | > 10000 nM | 3160 nM | > 10000 nM | – | > 10000 nM | > 10000 nM | > 10000 nM | > 10000 nM | – | – | – | –
12 | COc1ccc2cc1OCC(=O)N1CCC[C@@H]1CN(C)CCCc1c[nH]c3ncnc(c13)N2 [Compound 38] | > 10000 nM | > 10000 nM | > 10000 nM | – | > 10000 nM | > 10000 nM | > 10000 nM | > 10000 nM | – | – | – | –
